Data on 24 compounds can be found in patent publication US10174037B2, “Dihydropyrazolopyrimidinone compounds as PDE2 inhibitors” (Merck Sharp & Dohme Corp., priority 2015, dated 2019).

The target in one assay is Rhesus PDE2A3 (Macaca mulatta, UniProt B3VTJ2). The experiment in a line: PDE2 fluorescence polarization (IMAP FP) assay, rhesus PDE2A3. It counts as biochemical, rhesus macaque. Particulars: Lab B, read-out: Rhesus PDE2 Ki (nM) Lab B. In general terms: Fluorescence polarisation rises when a labelled molecule tumbles more slowly, as on binding a larger partner.
The next assay has as its target human PDE2A1 (Homo sapiens (Human), UniProt O00408). Nature of the assay: PDE selectivity IMAP FP assay, human PDE2A1. It counts as biochemical. Particulars: Human PDE2; Lab B; read-out: Human PDE2 Ki (nM) Lab B. An outline of the steps: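 IMAP fluorescence polarization assay; PDE2 substrate 50 nM FAM-cAMP containing 1000 nM cGMP, enzyme diluted for 20% substrate conversion, in 10 mM Tris HCl pH 7.2, 10 mM MgCl2, 1 mM DTT. Reaction 60 min at room temperature, stopped with IMAP binding solution; polarization read after 1 h. Ki reported.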

human PDE2A1, sequence (O00408 other isoform, or with tags, fused parts or gaps): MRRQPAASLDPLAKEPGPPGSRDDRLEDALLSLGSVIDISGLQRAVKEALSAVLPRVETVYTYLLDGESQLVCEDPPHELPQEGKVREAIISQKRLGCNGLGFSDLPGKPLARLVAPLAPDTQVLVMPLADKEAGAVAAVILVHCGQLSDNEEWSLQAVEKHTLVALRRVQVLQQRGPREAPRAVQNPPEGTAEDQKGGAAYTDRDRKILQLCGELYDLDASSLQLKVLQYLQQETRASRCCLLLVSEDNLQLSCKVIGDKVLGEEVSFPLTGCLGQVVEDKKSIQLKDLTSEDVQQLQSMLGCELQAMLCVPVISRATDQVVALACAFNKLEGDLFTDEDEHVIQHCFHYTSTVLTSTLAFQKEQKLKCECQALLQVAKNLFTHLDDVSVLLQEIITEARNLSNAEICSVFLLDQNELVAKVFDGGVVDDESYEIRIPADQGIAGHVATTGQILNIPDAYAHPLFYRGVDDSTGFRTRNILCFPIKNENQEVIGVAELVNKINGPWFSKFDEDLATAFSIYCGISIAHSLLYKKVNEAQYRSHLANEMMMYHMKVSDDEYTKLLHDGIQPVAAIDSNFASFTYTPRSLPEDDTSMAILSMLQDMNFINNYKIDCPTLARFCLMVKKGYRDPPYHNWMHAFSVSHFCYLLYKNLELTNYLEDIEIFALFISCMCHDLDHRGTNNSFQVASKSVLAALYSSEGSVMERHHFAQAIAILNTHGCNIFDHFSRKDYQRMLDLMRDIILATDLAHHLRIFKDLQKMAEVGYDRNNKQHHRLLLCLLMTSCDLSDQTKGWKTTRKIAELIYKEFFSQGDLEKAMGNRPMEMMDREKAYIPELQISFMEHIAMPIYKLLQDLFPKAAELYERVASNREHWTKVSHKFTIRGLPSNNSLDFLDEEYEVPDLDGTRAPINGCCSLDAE
Rhesus PDE2A3, sequence (B3VTJ2 1-941): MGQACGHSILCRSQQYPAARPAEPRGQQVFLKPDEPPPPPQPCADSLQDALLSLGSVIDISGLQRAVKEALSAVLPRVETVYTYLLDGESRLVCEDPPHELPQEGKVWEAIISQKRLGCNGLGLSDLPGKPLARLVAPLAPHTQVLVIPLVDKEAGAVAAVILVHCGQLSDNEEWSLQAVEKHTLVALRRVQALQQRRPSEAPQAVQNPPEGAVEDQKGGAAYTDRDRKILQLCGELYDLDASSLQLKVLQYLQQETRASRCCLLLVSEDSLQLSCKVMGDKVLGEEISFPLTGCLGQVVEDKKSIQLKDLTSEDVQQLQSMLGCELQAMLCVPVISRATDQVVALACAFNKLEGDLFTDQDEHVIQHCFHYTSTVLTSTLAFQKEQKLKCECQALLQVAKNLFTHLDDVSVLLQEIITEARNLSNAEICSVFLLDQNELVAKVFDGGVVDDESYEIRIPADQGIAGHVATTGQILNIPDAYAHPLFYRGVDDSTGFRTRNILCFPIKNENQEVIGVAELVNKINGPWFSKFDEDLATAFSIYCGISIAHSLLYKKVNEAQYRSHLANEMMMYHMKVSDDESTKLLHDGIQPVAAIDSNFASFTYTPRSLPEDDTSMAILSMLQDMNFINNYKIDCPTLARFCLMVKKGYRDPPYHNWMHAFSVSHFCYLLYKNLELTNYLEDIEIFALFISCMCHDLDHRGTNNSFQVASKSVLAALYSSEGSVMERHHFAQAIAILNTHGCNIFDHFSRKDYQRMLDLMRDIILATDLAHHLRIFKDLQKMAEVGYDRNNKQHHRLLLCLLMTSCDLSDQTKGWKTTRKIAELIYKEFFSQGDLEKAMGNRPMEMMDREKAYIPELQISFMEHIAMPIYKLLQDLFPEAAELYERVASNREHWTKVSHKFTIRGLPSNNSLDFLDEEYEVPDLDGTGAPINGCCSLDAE

Take `CN(C)c1nc2c(c(CO)nn2C(c2ccc(C(F)(F)F)cc2F)C2CC2)c(=O)[nH]1` (single isomer, unassigned) [Example 135, (S)- or (R)-1-(Cyclopropyl(2-fluoro-4-(trifluoromethyl)phenyl)methyl)-6-(dimethylamino)-3-(hydroxymethyl)-1H-pyrazolo[3,4-d]pyrimidin-4(5H)-one]: the Ki – broadly, the dissociation constant of the complex between target and ligand, obtained from inhibition or displacement – is 0.72 nM on Rhesus PDE2A3 and 0.6 nM at human PDE2A1.
Take `CCC(c1ccc(C(C)(F)F)cc1)n1nc(CO)c2c(=O)[nH]c(N(C)C)nc21` (single isomer, unassigned) [Example 137, (S)- or (R)-1-(1-(4-(1,1-Difluoroethyl)phenyl)propyl)-6-(dimethylamino)-3-(hydroxymethyl)-1H-pyrazolo[3,4-d]pyrimidin-4(5H)-one]: the inhibitory constant (Ki) at Rhesus PDE2A3 was determined as 0.14 nM; on human PDE2A1 it was 0.073 nM.
The matching figures for `CC(C)C(c1ccc(C(C)(F)F)cc1)n1nc(CO)c2c(=O)[nH]c(N(C)C)nc21` (single isomer, unassigned) [Example 138, (R)- or (S)-1-(1-(4-(1,1-Difluoroethyl)phenyl)-2-methylpropyl)-6-(dimethylamino)-3-(hydroxymethyl)-1H-pyrazolo[3,4-d]pyrimidin-4(5H)-one]: 0.41 nM and 0.19 nM.
Regarding `CC(C)C(c1ccc(C(C)(F)F)cc1)n1nc(CO)c2c(=O)[nH]c(N(C)C)nc21` (single isomer, unassigned) [Example 139, (S)- or (R)-1-(1-(4-(1,1-Difluoroethyl)phenyl)-2-methylpropyl)-6-(dimethylamino)-3-(hydroxymethyl)-1H-pyrazolo[3,4-d]pyrimidin-4(5H)-one], the Ki at Rhesus PDE2A3 came out at 0.04 nM; at human PDE2A1, 0.064 nM.
On to `CN(C)c1nc2c(c(CO)nn2C(c2ccc(C(C)(F)F)cc2)C2CC2)c(=O)[nH]1` (single isomer, unassigned) [Example 140, (R)- or (S)-1-(Cyclopropyl(4-(1,1-difluoroethyl)phenyl)methyl)-6-(dimethylamino)-3-(hydroxymethyl)-1H-pyrazolo[3,4-d]pyrimidin-4(5H)-one], for which the Ki on Rhesus PDE2A3 was found to be 0.097 nM; at human PDE2A1 it was 0.07 nM.
For `CN(C)c1nc2c(c(CO)nn2C(c2ccc(C(C)(F)F)cc2)C2CC2)c(=O)[nH]1` (single isomer, unassigned) [Example 141, (S)- or (R)-1-(Cyclopropyl(4-(1,1-difluoroethyl)phenyl)methyl)-6-(dimethylamino)-3-(hydroxymethyl)-1H-pyrazolo[3,4-d]pyrimidin-4(5H)-one], the inhibition constant (Ki) on Rhesus PDE2A3 is 0.64 nM; at human PDE2A1, 0.56 nM.
`CC(C)C(c1ccc(C(F)(F)F)c(F)c1)n1nc(CO)c2c(=O)[nH]c(N(C)C)nc21` (single isomer, unassigned) [Example 142, (R)- or (S)-6-(Dimethylamino)-1-(1-(3-fluoro-4-(trifluoromethyl)phenyl)-2-methylpropyl)-3-(hydroxymethyl)-1H-pyrazolo[3,4-d]pyrimidin-4(5H)-one]: the inhibitory constant (Ki) on Rhesus PDE2A3 turned out to be 0.29 nM; on human PDE2A1, 0.19 nM.
Consider `CC(C)C(c1ccc(C(F)(F)F)c(F)c1)n1nc(CO)c2c(=O)[nH]c(N(C)C)nc21` (single isomer, unassigned) [Example 143, (S)- or (R)-6-(Dimethylamino)-1-(1-(3-fluoro-4-(trifluoromethyl)phenyl)-2-methylpropyl)-3-(hydroxymethyl)-1H-pyrazolo[3,4-d]pyrimidin-4(5H)-one], for which the figures for the Ki on Rhesus PDE2A3 and at human PDE2A1 were 0.063 nM and 0.068 nM, respectively.
As for `CCC(c1ccc(C(F)(F)F)c(F)c1)n1nc(CO)c2c(=O)[nH]c(N(C)C)nc21` (single isomer, unassigned) [Example 144, (R)- or (S)-6-(Dimethylamino)-1-(1-(3-fluoro-4-(trifluoromethyl)phenyl)propyl)-3-(hydroxymethyl)-1H-pyrazolo[3,4-d]pyrimidin-4(5H)-one], the Ki on Rhesus PDE2A3 was 3.1 nM; on human PDE2A1, 1.7 nM.
For `CCC(c1ccc(C(F)(F)F)c(F)c1)n1nc(CO)c2c(=O)[nH]c(N(C)C)nc21` (single isomer, unassigned) [Example 145, (S)- or (R)-6-(Dimethylamino)-1-(1-(3-fluoro-4-(trifluoromethyl)phenyl)propyl)-3-(hydroxymethyl)-1H-pyrazolo[3,4-d]pyrimidin-4(5H)-one], the Ki on Rhesus PDE2A3 was determined as 0.13 nM; at human PDE2A1, 0.11 nM.
Consider `CC(c1ccc(OC(F)(F)F)cc1)n1nc(CO)c2c(=O)[nH]c(N(C)C)nc21` (single isomer, unassigned) [Example 148, (R)- or (S)-6-(Dimethylamino)-3-(hydroxymethyl)-1-(1-(4-(trifluoromethoxy)phenyl)ethyl)-1H-pyrazolo[3,4-d]pyrimidin-4(5H)-one], for which the Ki at Rhesus PDE2A3 stood at 3.3 nM; at human PDE2A1, 2.6 nM.
For `CC(c1ccc(OC(F)(F)F)cc1)n1nc(CO)c2c(=O)[nH]c(N(C)C)nc21` (single isomer, unassigned) [Example 149, (S)- or (R)-6-(Dimethylamino)-3-(hydroxymethyl)-1-(1-(4-(trifluoromethoxy)phenyl)ethyl)-1H-pyrazolo[3,4-d]pyrimidin-4(5H)-one], in that order: 0.46 nM and 0.51 nM.
With `CN(C)c1nc2c(c(CO)nn2C(c2ccc(C(F)(F)F)c(F)c2)C2CC2)c(=O)[nH]1` (single isomer, unassigned) [Example 150, (R)- or (S)-1-(Cyclopropyl(3-fluoro-4-(trifluoromelhyl)phenyl)methyl)-6-(dimethylamino)-3-(hydroxymethyl)-1H-pyrazolo[3,4-d]pyrimidin-4(5H)-one], the Ki at Rhesus PDE2A3 and on human PDE2A1 was 0.12 nM in each case.
Consider `CN(C)c1nc2c(c(CO)nn2C(c2ccc(C(F)(F)F)c(F)c2)C2CC2)c(=O)[nH]1` (single isomer, unassigned) [Example 151, (S)- or (R)-1-(Cyclopropyl(3-fluoro-4-(trifluoromethyl)phenyl)methyl)-6-(dimethylamino)-3-(hydroxymethyl)-1H-pyrazolo[3,4-d]pyrimidin-4(5H)-one], for which the Ki at Rhesus PDE2A3 amounted to 0.79 nM; on human PDE2A1, 0.61 nM.
`CN(C)c1nc2c(c(CO)nn2C(c2ccc(C(F)F)c(F)c2)C2CC2)c(=O)[nH]1` (single isomer, unassigned) [Example 152, (R)- or (S)-1-(Cyclopropyl(4-(difluoromethyl)-3-fluorophenyl)methyl)-6-(dimethylamino)-3-(hydroxymethyl)-1H-pyrazolo[3,4-d]pyrimidin-4(5H)-one]: the inhibition constant (Ki) at Rhesus PDE2A3 was determined as 0.97 nM; on human PDE2A1, 0.57 nM.
As for `CC(C)C(c1ccc(C(F)(F)F)cc1)n1nc(CF)c2c(=O)[nH]c(N(C)C)nc21` (single isomer, unassigned) [Example 162], the values for the Ki at Rhesus PDE2A3 and on human PDE2A1 were 0.63 nM and 0.54 nM, respectively.
The matching figures for `CC(C)C(c1ccc(C(F)(F)F)cc1)n1nc(CF)c2c(=O)[nH]c(N(C)C)nc21` (single isomer, unassigned) [Example 163]: 0.07 nM and 0.056 nM.
Consider `CC(c1ccc(OC(F)(F)F)cc1)n1nc(CF)c2c(=O)[nH]c(N(C)C)nc21` (single isomer, unassigned) [Example 164, (R)- or (S)-6-(Dimethylammo)-3-(fluoromethyl)-1-(1-(4-(trifluoromethoxy)phenyl)ethyl)-1H-pyrazolo[3,4-d]pyrimidin-4(5H)-one], for which the inhibition constant (Ki) at Rhesus PDE2A3 is 2 nM; on human PDE2A1, 1.7 nM.
For the compound `CC(c1ccc(OC(F)(F)F)cc1)n1nc(CF)c2c(=O)[nH]c(N(C)C)nc21` (single isomer, unassigned) [Example 165, (S)- or (R)-6-(Dimethylamino)-3-(fluoromethyl)-1-(1-(4-(trifluoromethoxy)phenyl)ethyl)-1H-pyrazolo[3,4-d]pyrimidin-4(5H)-one], the Ki on Rhesus PDE2A3 was 0.28 nM; on human PDE2A1, 0.33 nM.
In the case of `CC(c1ccc(OC(F)(F)F)c(F)c1)n1nc(CF)c2c(=O)[nH]c(N(C)C)nc21` (single isomer, unassigned) [Example 166, (R)- or (S)-6-(Dimethylamino)-1-(1-(3-fluoro-4-(trifluoromethoxy)phenyl)ethyl)-3-(fluoromethyl)-1H-pyrazolo[3,4-d]pyrimidin-4(5H)-one], the Ki at Rhesus PDE2A3 came to 0.91 nM; at human PDE2A1, 0.61 nM.
In the case of `CC(c1ccc(OC(F)(F)F)c(F)c1)n1nc(CF)c2c(=O)[nH]c(N(C)C)nc21` (single isomer, unassigned) [Example 167, (S)- or (R)-6-(Dimethylamino)-1-(1-(3-fluoro-4-(trifluoromethoxy)phenyl)ethyl)-3-(fluoromethyl)-1H-pyrazolo[3,4-d]pyrimidin-4(5H)-one], the figures for the Ki on Rhesus PDE2A3 and on human PDE2A1 were 0.18 nM and 0.2 nM, respectively.
Consider `CC(c1ccc(C(F)(F)F)c(F)c1)n1nc(CF)c2c(=O)[nH]c(N(C)C)nc21` (single isomer, unassigned) [Example 168, (R)- or (S)-6-(Dimethylamino)-1-(1-(3-fluoro-4-(trifluoromethyl)phenyl)ethyl)-3-(fluoromethyl)-1H-pyrazolo[3,4-d]pyrimidin-4(5H)-one], for which the Ki came to 8.1 nM on Rhesus PDE2A3 and 5.3 nM at human PDE2A1.
For `CC(c1ccc(C(F)(F)F)c(F)c1)n1nc(CF)c2c(=O)[nH]c(N(C)C)nc21` (single isomer, unassigned) [Example 169, (S)- or (R)-6-(Dimethylamino)-1-(1-(3-fluoro-4-(trifluoromethyl)phenyl)ethyl)-3-(fluoromethyl)-1H-pyrazolo[3,4-d]pyrimidin-4(5H)-one], in that order: 0.2 nM and 0.099 nM.
On to `CC(c1ccc(C(C)(C)C)cc1)n1nc(CF)c2c(=O)[nH]c(N(C)C)nc21` (single isomer, unassigned) [Example 170, (R)- or (S)-1-(1-(4-tert-Butylphenyl(ethyl)-6-(dimethylamino)-3-(fluoromethyl)-1H-pyrazolo[3,4-d]pyrimidin-4(5H)-one], for which the Ki on Rhesus PDE2A3 stood at 11 nM; on human PDE2A1, 7.6 nM.
